Molecular target: cdc7/dbf4 (Homo sapiens, UniProt O00311)
Assay: In vitro assay of CDC7/DBF4 inhibition (phosphoserine 108-MCM-2 detection, donor/acceptor beads)
Format: biochemical
Settings: 0.5 μM ATP solution, MCM-2 substrate, 1 hr room temperature; for inhibition at 0.93 µM (stock): Test Concentration 0.93 μM; for inhibition at 1.39 µM (stock): Test Concentration 1.39 μM
Protocol: A 20.5 μL kinase reaction was performed on OptiPlate-384 plates PerkinElmer, 6007290) as follows by sequential addition of: 0.5 μL of test compounds of the invention in DMSO, 10 μL 0.5 μM ATP in reaction buffer, 10 μL 2.2 nM cdc7/dbf4 baculovirus derived), 4.4 nM MCM-2 in a reaction buffer. The reaction proceeded for 1 hr at room temperature on an orbital shaker. The reaction was terminated by addition of 10 μL detection buffer containing Streptavidin-coated donor beads and Protein A conjugated acceptor beads (54 μg/ml), and 1:4000 diluted rabbit antibody against phosphoserine 108-MCM-2 (Bethyl Labs). The mixture was incubated at room temperature for 4 hrs in the dark. The plate was then read on a PerkinElmer Fusion instrument. The reaction buffer contained 50 mM Hepes (pH 7.2-7.5), 10 mM MgCl2, 1 mM dithiothreitol (DTT), leupeptin (10 μg/ml), and bovine serum albumin (BSA) (0.2 mg/ml). The detection buffer contained 25 mM Tris (pH 7.5), 400 mM NaCl, 100mM EDTA, 0.3% BSA, and 0.05% Tween 20.
Representative compounds of the invention which inhibited the kinase reaction >70% in the above cdc7/db4 assay were selected for further analysis and confirmation. Test compounds were diluted in DMSO to a concentration of 0.93 μM or 1.39 μM and 0.5 μL of each test solution was added to wells for assay using the assay conditions and methods as described above.

Chain of cdc7/dbf4 (O00311 whole entry): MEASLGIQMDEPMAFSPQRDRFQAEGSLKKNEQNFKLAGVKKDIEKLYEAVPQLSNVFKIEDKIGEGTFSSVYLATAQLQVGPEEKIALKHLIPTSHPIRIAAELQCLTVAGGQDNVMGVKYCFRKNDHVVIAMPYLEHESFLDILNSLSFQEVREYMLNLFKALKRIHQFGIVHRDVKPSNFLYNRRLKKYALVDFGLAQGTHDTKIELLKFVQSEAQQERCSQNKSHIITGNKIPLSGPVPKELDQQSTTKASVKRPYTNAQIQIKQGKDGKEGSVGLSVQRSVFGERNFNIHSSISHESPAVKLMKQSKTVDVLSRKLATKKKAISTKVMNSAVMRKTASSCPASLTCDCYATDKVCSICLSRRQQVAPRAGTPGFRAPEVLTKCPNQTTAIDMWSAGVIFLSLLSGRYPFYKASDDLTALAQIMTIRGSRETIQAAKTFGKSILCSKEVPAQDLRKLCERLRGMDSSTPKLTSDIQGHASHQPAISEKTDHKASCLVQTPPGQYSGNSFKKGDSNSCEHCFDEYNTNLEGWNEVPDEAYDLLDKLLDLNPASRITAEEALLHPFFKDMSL
Chain of cdc7/dbf4 (Q9UBU7 whole entry partner): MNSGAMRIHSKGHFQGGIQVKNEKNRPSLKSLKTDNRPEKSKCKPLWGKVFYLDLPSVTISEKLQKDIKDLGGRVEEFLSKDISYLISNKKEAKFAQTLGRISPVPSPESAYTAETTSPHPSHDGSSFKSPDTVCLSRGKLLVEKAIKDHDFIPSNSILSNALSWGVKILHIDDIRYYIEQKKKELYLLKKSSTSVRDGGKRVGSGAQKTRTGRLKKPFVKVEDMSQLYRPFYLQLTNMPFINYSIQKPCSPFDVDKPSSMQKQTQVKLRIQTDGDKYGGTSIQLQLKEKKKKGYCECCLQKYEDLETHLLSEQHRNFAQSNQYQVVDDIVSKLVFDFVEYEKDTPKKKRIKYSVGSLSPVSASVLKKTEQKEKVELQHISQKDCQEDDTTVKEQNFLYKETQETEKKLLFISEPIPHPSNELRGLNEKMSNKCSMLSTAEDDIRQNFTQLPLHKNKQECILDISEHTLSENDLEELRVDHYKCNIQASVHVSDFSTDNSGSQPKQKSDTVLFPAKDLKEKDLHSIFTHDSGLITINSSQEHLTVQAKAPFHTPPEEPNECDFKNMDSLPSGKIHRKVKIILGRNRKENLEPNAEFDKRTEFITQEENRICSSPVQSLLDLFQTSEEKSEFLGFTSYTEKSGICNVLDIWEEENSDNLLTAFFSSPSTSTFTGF

Structure (SMILES) | inhibition at 0.93 µM (stock) [%] | inhibition at 1.39 µM (stock) [%]
O=c1nc(-c2ccc3[nH]ncc3c2)cc(-c2ccc(N3CCNCC3)cc2)[nH]1 [Example 16, 4-(1H-indazol-5-yl)-6-(4-piperazin-1-ylphenyl)pyrimidin-2(1H)-one] | 94 | –
COc1ccc(OC)c(-c2cc(-c3ccc4[nH]ncc4c3)nc(=O)[nH]2)c1 [Example 4, 6-(2,5-dimethoxyphenyl)-4-(1H-indazol-5-yl)pyrimidin-2(1H)-one] | 94 | –
O=c1nc(-c2ccc3[nH]ncc3c2)cc(-c2ccc(N3CCOCC3)cc2)[nH]1 [Example 13, 4-(1H-indazol-5-yl)-6-(4-morpholin-4-ylphenyl)pyrimidin-2(1H)-one] | – | 92
O=c1nc(-c2ccc3[nH]ncc3c2)cc(-c2cccc(Cl)c2)[nH]1 [Example 10, 6-(3-chlorophenyl)-4-(1H-indazol-5-yl)pyrimidin-2(1H)-one] | 98 | –
COc1ccc(-c2cc(-c3ccc4[nH]ncc4c3)nc(=O)[nH]2)c(F)c1 [Example 3, 6-(2-fluoro-4-methoxyphenyl)-4-(1H-indazol-5-yl)pyrimidin-2(1H)-one] | 81 | –
COc1ccc(-c2cc(-c3ccc4[nH]ncc4c3)nc(=O)[nH]2)cc1OC [Example 7, 6-(3,4-dimethoxyphenyl)-4-(1H-indazol-5-yl)pyrimidin-2(1H)-one] | 62 | –
O=c1nc(-c2ccc3[nH]ncc3c2)cc(-c2ccc(Oc3ccccc3)cc2)[nH]1 [Example 14, 4-(1H-indazol-5-yl)-6-(4-phenoxyphenyl)pyrimidin-2(1H)-one] | – | 84
O=c1nc(-c2ccc3[nH]ncc3c2)cc(-c2cccc(OCc3ccccc3)c2)[nH]1 [Example 12, 6-[3-(benzyloxy)phenyl]-4-(1H-indazol-5-yl)pyrimidin-2(1H)-one] | – | 98
O=c1nc(-c2ccc3[nH]ncc3c2)cc(-c2cccc(F)c2)[nH]1 [Example 2, 6-(3-fluorophenyl)-4-(1H-indazol-5-yl)pyrimidin-2(1H)-one] | 82 | –
O=c1nc(-c2ccc3[nH]ncc3c2)cc(-c2ccccc2)[nH]1 [Example 11, 4-(1H-indazol-5-yl)-6-phenylpyrimidin-2(1H)-one] | – | 98
O=c1nc(-c2ccc3[nH]ncc3c2)cc(-c2cccc(C(F)(F)F)c2)[nH]1 [Example 8, 4-(1H-indazol-5-yl)-6-[3-(trifluoromethyl)phenyl]pyrimidin-2(1H)-one] | 55 | –
O=c1nc(-c2ccc3[nH]ncc3c2)cc(-c2ccccc2F)[nH]1 [Example 9, 6-(2-fluorophenyl)-4-(1H-indazol-5-yl)pyrimidin-2(1H)-one] | 87 | –
CCc1ccc(-c2cc(-c3ccc4[nH]ncc4c3)nc(=O)[nH]2)cc1 [Example 6, 6-(4-ethylphenyl)-4-(1H-indazol-5-yl)pyrimidin-2(1H)-one] | 83 | –
O=c1nc(-c2ccc3[nH]ncc3c2)cc(-c2ccc(OCc3ccccc3)cc2)[nH]1 [Example 15, 6-[4-(benzyloxy)phenyl]-4-(1H-indazol-5-yl)pyrimidin-2(1H)-one] | 58 | –
COc1ccc(-c2cc(-c3ccc4[nH]ncc4c3)nc(=O)[nH]2)cc1F [Example 5, 6-(3-fluoro-4-methoxyphenyl)-4-(1H-indazol-5-yl)pyrimidin-2(1H)-one] | 75 | –

Reference: patent US20070293491A1, “INDAZOLE COMPOUNDS AND METHODS FOR INHIBITION OF CDC7” (NOVARTIS VACCINES AND DIAGNOSTICS, INC., priority 2006, published 2007)
